Test results from patent publication US6461997B1, “Triazole sulfones having herbicidal activity” (Monsanto Technology LLC, priority 1999, dated 2002).

Assays:
[1] = test system: CIRAR (canada thistle (seedling)); assay: Pre-emergence herbicidal activity, warm season; assay type: in vivo, Cirsium arvense; conditions: GR80 = lowest tested rate (300, 100, 30, 10 g/ha) with 80% or greater inhibition; approx. 14 days after treating; 30/21° C.
Protocol: (§1) Tables 5 to 8 summarize results of tests conducted as described below to determine the pre-emergence herbicidal activity, in the form of a GR80 value, of illustrative compounds of this invention. […] Compounds of the invention were typically applied at rates of 300, 100, 30, and 10 g/ha. Where herbicidal activity was evident but 80% inhibition was not achieved at the highest rate tested, an asterisk (*) is shown in the following tables.
(§2) The pre-emergence tests were conducted by the following procedure. Topsoil was sieved to pass through a 1.27 cm screen. Fertilizer was added to the topsoil and the mixture was then sterilized by heating. The topsoil mixture was placed in a pot and compacted to a depth of 1.0 to 1.25 cm from the top of the pot. Seeds of each of several monocotyledonous and dicotyledonous annual plant species were placed on top of the soil. Additional soil was subsequently placed over the seeds to level-fill the pot. A known amount of each test compound dissolved or suspended in an appropriate organic solvent was diluted with a 50:50 mix of acetone and water and applied to the surface of the soil. After treatment the plants were placed in a greenhouse where they received 0.64 cm of overhead irrigation. All subsequent watering consisted of a light overhead mist and/or subirrigation as needed for germination and growth. Tables 5 and 6 below relate to warm season plant species which were placed after pre-emergence treatment in a greenhouse with a 30/21° C. day/night temperature regime. Tables 7 and 8 below relates to cool season plant species placed after pre-emergence treatment in a greenhouse or growth chamber with an 18/13° C. day/night temperature regime.
(§3) Approximately 14 days after planting and treating, the plants were observed and herbicidal efficacy recorded as percent inhibition by comparison with untreated plants.
(§4) The plant species usually regarded as weeds which were utilized in the tests are identified in the tables below according to the following legend, in which “d” indicates a dicotyledonous species and “m” a monocotyledonous species. All monocotyledonous species included in the tests herein are grasses.

POLCO (wild buckwheat) = assay: Pre-emergence herbicidal activity, cool season; assay type: in vivo, Polygonum convolvulus; conditions: lowest tested rate with 80% or greater inhibition; rates 300, 100, 30, 10 g/ha; about 14 days
How it was run: (§5)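 Activity is expressed as the rate giving 80% inhibition, with 300, 100, 30 and 10 g/ha typically tested. An asterisk marks activity short of 80% at the top rate. Warm-season grasses were held at 30/21 °C; cool-season blackgrass and wild buckwheat at 18/13 °C; scoring at about 14 days.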

ECHCG (barnyardgrass) = assay: Pre-emergence herbicidal activity, warm season; assay type: in vivo, Echinochloa crus-galli; conditions: GR80 = lowest tested rate (300, 100, 30, 10 g/ha) with 80% or greater inhibition; approx. 14 days after treating; 30/21° C.
Protocol: as §1, §2, §3, §4

[2] = test system: CHEAL (common lambsquarters); assay: Pre-emergence herbicidal activity, warm season; assay type: in vivo, Chenopodium album; conditions: GR80 = lowest tested rate (300, 100, 30, 10 g/ha) with 80% or greater inhibition; approx. 14 days after treating; 30/21° C.
Protocol: as §1, §2, §3, §4

SASKR (russian thistle) = assay: Pre-emergence herbicidal activity, cool season; assay type: in vivo, Salsola kali; conditions: lowest tested rate with 80% or greater inhibition; rates 300, 100, 30, 10 g/ha; about 14 days
How it was run: (§6)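 GR80 values derive from percent inhibition relative to untreated plants, read roughly 14 days after sowing and pre-emergence soil-surface treatment (compound in 50:50 acetone/water; rates typically 10, 30, 100, 300 g/ha). Warm-season weeds grew at 30/21° C day/night, cool-season ones at 18/13° C; an asterisk marks activity without reaching 80% at the highest rate.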

ALOMY (blackgrass) = assay: Pre-emergence herbicidal activity, cool season; assay type: in vivo, Alopecurus myosuroides; conditions: GR80 = lowest tested rate (300, 100, 30, 10 g/ha) with 80% or greater inhibition; approx. 14 days after treating; 18/13° C.
Protocol: as §1, §2, §3, §4

POROL (common purslane) = assay: Pre-emergence herbicidal activity, warm season; assay type: in vivo, Portulaca oleracea; conditions: GR80 = lowest tested rate (300, 100, 30, 10 g/ha) with 80% or greater inhibition; approx. 14 days after treating; 30/21° C.
Protocol: as §1, §2, §3, §4

[3] = test system: VERPE (creeping speedwell); assay: Pre-emergence herbicidal activity, cool season; assay type: in vivo, Veronica persicaria; conditions: lowest tested rate with 80% or greater inhibition; rates 300, 100, 30, 10 g/ha; about 14 days
How it was run: as §6

SINAR (wild mustard) = assay: Pre-emergence herbicidal activity, cool season; assay type: in vivo, Sinapis arvensis; conditions: lowest tested rate with 80% or greater inhibition; rates 300, 100, 30, 10 g/ha; about 14 days
How it was run: as §6

[4] = test system: AGSST (creeping bentgrass); assay: Pre-emergence herbicidal activity, cool season; assay type: in vivo, Agrostis stolonifera; conditions: GR80 = lowest tested rate (300, 100, 30, 10 g/ha) with 80% or greater inhibition; approx. 14 days after treating; 18/13° C.
How it was run: as §6

[5] = test system: PANMI (wild proso millet); assay: Pre-emergence herbicidal activity, warm season; assay type: in vivo, Panicum miliaceum; conditions: GR80 = lowest tested rate (300, 100, 30, 10 g/ha) with 80% or greater inhibition; approx. 14 days after treating; 30/21° C.
How it was run: as §5

STEME (common chickweed) = assay: Pre-emergence herbicidal activity, cool season; assay type: in vivo, Stellaria media; conditions: lowest tested rate with 80% or greater inhibition; rates 300, 100, 30, 10 g/ha; about 14 days
How it was run: as §6

[6] = test system: LAMPU (purple deadnettle); assay: Pre-emergence herbicidal activity, cool season; assay type: in vivo, Lamium purpureum; conditions: lowest tested rate with 80% or greater inhibition; rates 300, 100, 30, 10 g/ha; about 14 days
How it was run: as §6

[7] = test system: GALAP (catchweed bedstraw); assay: Pre-emergence herbicidal activity, cool season; assay type: in vivo, Galium aparine; conditions: lowest tested rate with 80% or greater inhibition; rates 300, 100, 30, 10 g/ha; about 14 days
How it was run: as §6

SETVI (green foxtail) = assay: Pre-emergence herbicidal activity, cool season; assay type: in vivo, Setaria viridis; conditions: GR80 = lowest tested rate (300, 100, 30, 10 g/ha) with 80% or greater inhibition; approx. 14 days after treating; 18/13° C.
Protocol: as §1, §2, §3, §4

SETFA (giant foxtail) = assay: Pre-emergence herbicidal activity, warm season; assay type: in vivo, Setaria faberi; conditions: GR80 = lowest tested rate (300, 100, 30, 10 g/ha) with 80% or greater inhibition; approx. 14 days after treating; 30/21° C.
Protocol: as §1, §2, §3, §4

DIGSA (large crabgrass) = assay: Pre-emergence herbicidal activity, warm season; assay type: in vivo, Digitaria sanguinalis; conditions: GR80 = lowest tested rate (300, 100, 30, 10 g/ha) with 80% or greater inhibition; approx. 14 days after treating; 30/21° C.
Protocol: as §1, §2, §3, §4

SOLNI (black nightshade) = assay: Pre-emergence herbicidal activity, warm season; assay type: in vivo, Solanum nigrum; conditions: GR80 = lowest tested rate (300, 100, 30, 10 g/ha) with 80% or greater inhibition; approx. 14 days after treating; 30/21° C.
Protocol: as §1, §2, §3, §4

AMARE (redroot pigweed) = assay: Pre-emergence herbicidal activity, warm season; assay type: in vivo, Amaranthus retroflexus; conditions: GR80 = lowest tested rate (300, 100, 30, 10 g/ha) with 80% or greater inhibition; approx. 14 days after treating; 30/21° C.
Protocol: as §1, §2, §3, §4

[8] = test system: SORHA (johnsongrass (seedling)); assay: Pre-emergence herbicidal activity, warm season; assay type: in vivo, Sorghum halepense; conditions: GR80 = lowest tested rate (300, 100, 30, 10 g/ha) with 80% or greater inhibition; approx. 14 days after treating; 30/21° C.
Protocol: as §1, §2, §3, §4

## CN(C)C(=O)n1cnc(S(=O)(=O)C(F)(F)C(F)F)n1 [Example 61]
[1]
  Pre-emergence activity (GR80) CIRAR: 300 g/ha
POLCO (wild buckwheat)
  Pre-emergence activity GR80, POLCO: [empty]
ECHCG (barnyardgrass)
  Pre-emergence activity (GR80) ECHCG: 300 g/ha
[2]
  Pre-emergence activity (GR80) CHEAL: 300 g/ha
SASKR (russian thistle)
  Pre-emergence activity GR80, SASKR: 100 g/ha
ALOMY (blackgrass)
  Pre-emergence activity (GR80) ALOMY: 100 g/ha
POROL (common purslane)
  Pre-emergence activity (GR80) POROL: 300 g/ha
[3]
  Pre-emergence activity GR80, VERPE: 100 g/ha
SINAR (wild mustard)
  Pre-emergence activity GR80, SINAR: 300 g/ha
[4]
  Pre-emergence activity (GR80) AGSST: 100 g/ha
[5]
  Pre-emergence activity (GR80) PANMI: 300 g/ha
STEME (common chickweed)
  Pre-emergence activity GR80, STEME: 300 g/ha
[6]
  Pre-emergence activity GR80, LAMPU: 300 g/ha
[7]
  Pre-emergence activity GR80, GALAP: 100 g/ha
SETVI (green foxtail)
  Pre-emergence activity (GR80) SETVI: 300 g/ha

## CCN(CC)C(=S)n1cnc(S(=O)(=O)C(F)(F)C(F)F)n1 [Example 70]
SETFA (giant foxtail)
  Pre-emergence activity (GR80) SETFA: 300 g/ha
[1]
  Pre-emergence activity (GR80) CIRAR: 300 g/ha
POLCO (wild buckwheat)
  Pre-emergence activity GR80, POLCO: 300 g/ha
[2]
  Pre-emergence activity (GR80) CHEAL: 300 g/ha
SASKR (russian thistle)
  Pre-emergence activity GR80, SASKR: 300 g/ha
POROL (common purslane)
  Pre-emergence activity (GR80) POROL: 300 g/ha
[3]
  Pre-emergence activity GR80, VERPE: [empty]
SINAR (wild mustard)
  Pre-emergence activity GR80, SINAR: 300 g/ha
[4]
  Pre-emergence activity (GR80) AGSST: 300 g/ha
DIGSA (large crabgrass)
  Pre-emergence activity (GR80) DIGSA: 300 g/ha
[5]
  Pre-emergence activity (GR80) PANMI: 300 g/ha
SOLNI (black nightshade)
  Pre-emergence activity (GR80) SOLNI: 300 g/ha
STEME (common chickweed)
  Pre-emergence activity GR80, STEME: [empty]
[6]
  Pre-emergence activity GR80, LAMPU: [empty]
[7]
  Pre-emergence activity GR80, GALAP: [empty]
SETVI (green foxtail)
  Pre-emergence activity (GR80) SETVI: 300 g/ha

## O=C(N1CCCC1)n1cnc(S(=O)(=O)C(F)(F)C(F)F)n1 [Example 71]
SETFA (giant foxtail)
  Pre-emergence activity (GR80) SETFA: 300 g/ha
[1]
  Pre-emergence activity (GR80) CIRAR: 300 g/ha
POLCO (wild buckwheat)
  Pre-emergence activity GR80, POLCO: 300 g/ha
AMARE (redroot pigweed)
  Pre-emergence activity (GR80) AMARE: 300 g/ha
[2]
  Pre-emergence activity (GR80) CHEAL: 30 g/ha
SASKR (russian thistle)
  Pre-emergence activity GR80, SASKR: [empty]
ALOMY (blackgrass)
  Pre-emergence activity (GR80) ALOMY: 300 g/ha
POROL (common purslane)
  Pre-emergence activity (GR80) POROL: 300 g/ha
[3]
  Pre-emergence activity GR80, VERPE: [empty]
SINAR (wild mustard)
  Pre-emergence activity GR80, SINAR: [empty]
[4]
  Pre-emergence activity (GR80) AGSST: 100 g/ha
[5]
  Pre-emergence activity (GR80) PANMI: 300 g/ha
SOLNI (black nightshade)
  Pre-emergence activity (GR80) SOLNI: 300 g/ha
[8]
  Pre-emergence activity (GR80) SORHA: 300 g/ha
STEME (common chickweed)
  Pre-emergence activity GR80, STEME: 300 g/ha
[6]
  Pre-emergence activity GR80, LAMPU: 300 g/ha
[7]
  Pre-emergence activity GR80, GALAP: 100 g/ha
SETVI (green foxtail)
  Pre-emergence activity (GR80) SETVI: 100 g/ha
